Measured values: article PMC5063977 (The Journal of Biological Chemistry, 2016)

Columns and labels:
[1] = molecular target: T1, RAMP1-CLR (CGRP receptor) (Homo sapiens, UniProt O60894+Q16602); assay: S. cerevisiae growth assay, GPA1/Gαq chimera, RAMP1 + CLR; type: cell-based; settings: percentage of yeast strain MMY11 (lacking GPA1); 24-h; mean ± S.E., n = 7
T1 construct: FLAG; expressed in transfected cells; host or cells: HEK-293 or HEK-293S cells, transient transfection, 1:1 RAMP:CLR
Experimental: FIGURE 7. […] Reporter gene activity was determined following 24-h stimulation. All data are expressed as percentage of the maximum response observed in yeast strain MMY11 and are means ± S.E. of n individual data sets. D, Bar chart showing the efficacy of each ligand for each RAMP-CLR combination at the Gαq chimera determined via application of the operational model of receptor agonism (Ref. [34] and Table 1). Data were determined as statistically different from the cognate ligand for each receptor (***, p < 0.001; ****, p < 0.0001) using one-way ANOVA with Bonferroni's post-test. E, signaling bias plots were calculated as ΔΔ(τ/Ka) values on a logarithmic scale for each ligand and for each chimera G protein for the three individual RAMP-CLR complexes.
General yeast procedures were performed as described previously ([22], [24]). […] Receptor signaling was measured using the yeast growth assay as described previously ([24]). […] A fluorescein signal was detected as an increase in fluorescence (excitation wavelength = 485 nm, emission wavelength = 535 nm) as a measure of growth. Different concentrations of ligand (0.01 nM–100 μM) were assayed using 96-well plates, and fluorescence was detected using a Tecan Infinite M200 microplate reader (Tecan Ultra Evolution, Reading, UK) or a Mithras LB 940 microplate reader (Berthold Technologies, Harpenden, UK) for 20 h. […]

[2] = molecular target: T2, RAMP2-CLR (AM1 receptor) (Homo sapiens, UniProt O60895+Q16602); assay: (Ca^2+)i mobilization, HEK-293S cells, RAMP2 + CLR; type: cell-based; settings: HEK293S, percentage of maximal (Ca^2+)i release with 10 μM ionomycin, mean ± S.E., n = 5
T2 construct: FLAG; expressed in transfected cells; host or cells: HEK-293 or HEK-293S cells, transient transfection, 1:1 RAMP:CLR
T2 sequence (Q16602 23-461): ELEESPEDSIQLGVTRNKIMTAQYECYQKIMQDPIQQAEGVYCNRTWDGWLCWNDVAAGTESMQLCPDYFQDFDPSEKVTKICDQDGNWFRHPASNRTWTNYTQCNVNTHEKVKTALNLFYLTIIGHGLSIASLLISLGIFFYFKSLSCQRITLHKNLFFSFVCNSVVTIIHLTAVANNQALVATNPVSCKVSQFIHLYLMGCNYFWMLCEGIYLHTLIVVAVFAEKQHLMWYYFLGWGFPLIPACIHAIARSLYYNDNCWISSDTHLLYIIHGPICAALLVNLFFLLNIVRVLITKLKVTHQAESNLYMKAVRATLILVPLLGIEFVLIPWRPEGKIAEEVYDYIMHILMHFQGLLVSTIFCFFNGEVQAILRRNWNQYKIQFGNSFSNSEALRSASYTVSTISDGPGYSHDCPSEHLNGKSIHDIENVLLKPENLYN
T2 sequence (O60895 43-175): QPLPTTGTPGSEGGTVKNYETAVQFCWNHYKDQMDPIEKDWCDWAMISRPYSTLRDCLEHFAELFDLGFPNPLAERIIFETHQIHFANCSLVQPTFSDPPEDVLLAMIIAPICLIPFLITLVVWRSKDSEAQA
Experimental: HEK-293 cells were transfected with FuGENE 6 (Roche Applied Science) in accordance with the manufacturer's instructions using a 1:3 (w:v) DNA:FuGENE ratio and a 1:1 ratio of RAMP to CLR. […] The transfected cell lines were grown for 24–48 h prior to assaying.
Transfected HEK-293 cells were grown to confluence in black, clear bottomed, 96-well plates. […] Cells were then washed followed by the addition of 100 μl of Ca^2+-free Hanks' balanced salt solution. […] Recordings were obtained every 0.5 s for 120 s. Peak magnitude was calculated using five-point smoothing followed by correction against background fluorescence. The peak was used to generate concentration-response curves and normalized relative to 10 μM ionomycin.
Data analysis for cAMP assays was performed in GraphPad Prism 6.0f (San Diego, CA). […] These values were then used to quantify signaling bias as change in log (τ/Ka) relative to the natural cognate ligand for the respective receptor ([41]). […] Statistical differences were analyzed using one-way ANOVA or Student's t test as appropriate with post hoc Bonferroni's or Dunnett's multiple comparisons, and p < 0.05 was considered significant. […] To quantitate the ligand-dependent response in the yeast system, a strain lacking GPA1 (MMY11), grown in rich medium, was used as a standard ([72]). […]

T1 sequence (Q16602 23-461): as the sequence (Q16602 23-461) above
T1 sequence (O60894 27-148): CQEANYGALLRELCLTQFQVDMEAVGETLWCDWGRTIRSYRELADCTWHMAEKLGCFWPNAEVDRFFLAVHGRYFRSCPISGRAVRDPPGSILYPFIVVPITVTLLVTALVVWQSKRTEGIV

Row | Emax [1] [%] | Emax [2] [%] | Structure (SMILES)
1 | 14.1 ± 1.2 | – | CC[C@H](C)[C@H](NC(=O)[C@H](CCC(N)=O)NC(=O)[C@H](Cc1c[nH]cn1)NC(=O)[C@H](C)NC(=O)[C@H](CC(C)C)NC(=O)[C@H](CCCCN)NC(=O)[C@H](CCC(N)=O)NC(=O)[C@@H](NC(=O)[C@@H](NC(=O)[C@@H]1CSSC[C@H](NC(=O)CNC(=O)[C@H](Cc2ccccc2)NC(=O)[C@H](CO)NC(=O)[C@H](CCCNC(=N)N)NC(=O)[C@H](CC(C)C)NC(=O)CNC(=O)[C@H](CCC(N)=O)NC(=O)[C@H](Cc2ccccc2)NC(=O)[C@H](CC(N)=O)NC(=O)[C@H](CC(N)=O)NC(=O)[C@H](CCSC)NC(=O)[C@H](CO)NC(=O)[C@H](CCC(N)=O)NC(=O)[C@H](CCCNC(=N)N)NC(=O)[C@@H](N)Cc2ccc(O)cc2)C(=O)N[C@@H](CCCNC(=N)N)C(=O)N[C@@H](Cc2ccccc2)C(=O)NCC(=O)N[C@@H]([C@@H](C)O)C(=O)N1)[C@@H](C)O)C(C)C)C(=O)N[C@@H](Cc1ccc(O)cc1)C(=O)N[C@@H](CCC(N)=O)C(=O)N[C@@H](Cc1ccccc1)C(=O)N[C@H](C(=O)N[C@@H](CC(=O)O)C(=O)N[C@@H](CCCCN)C(=O)N[C@@H](CC(=O)O)C(=O)N[C@@H](CCCCN)C(=O)N[C@@H](CC(=O)O)C(=O)N[C@@H](CC(N)=O)C(=O)N[C@H](C(=O)N[C@@H](C)C(=O)N1CCC[C@H]1C(=O)N[C@@H](CCCNC(=N)N)C(=O)N[C@@H](CO)C(=O)N[C@@H](CCCCN)C(=O)N[C@H](C(=O)N[C@@H](CO)C(=O)N1CCC[C@H]1C(=O)N[C@@H](CCC(N)=O)C(=O)NCC(=O)N[C@@H](Cc1ccc(O)cc1)C(N)=O)[C@@H](C)CC)C(C)C)[C@@H](C)O [AM, adrenomedullin]
2 | – | 20.2 ± 2.8 | CSCC[C@H](NC(=O)[C@H](CC(C)C)NC(=O)[C@H](CCC(N)=O)NC(=O)[C@H](Cc1c[nH]c2ccccc12)NC(=O)[C@H](CC(C)C)NC(=O)[C@H](CCCNC(=N)N)NC(=O)[C@H](Cc1c[nH]cn1)NC(=O)[C@H](CO)NC(=O)[C@H](CC(C)C)NC(=O)[C@H](CC(N)=O)NC(=O)[C@H](CCC(N)=O)NC(=O)[C@@H](NC(=O)[C@H](CCC(N)=O)NC(=O)[C@@H]1CSSC[C@H](NC(=O)CNC(=O)[C@@H](NC(=O)[C@H](CCCNC(=N)N)NC(=O)[C@H](CC(C)C)NC(=O)[C@H](CC(C)C)NC(=O)[C@H](CCC(N)=O)NC(=O)[C@H](C)NC(=O)[C@H](CCC(N)=O)NC(=O)[C@@H](N)[C@@H](C)O)C(C)C)C(=O)N[C@@H](C(C)C)C(=O)N[C@@H](CC(C)C)C(=O)NCC(=O)N[C@@H]([C@@H](C)O)C(=O)N1)C(C)C)C(=O)NCC(=O)N1CCC[C@H]1C(=O)N[C@@H](C)C(=O)NCC(=O)N[C@@H](CCCNC(=N)N)C(=O)N[C@@H](CCC(N)=O)C(=O)N[C@@H](CC(=O)O)C(=O)N[C@@H](CO)C(=O)N[C@@H](C)C(=O)N1CCC[C@H]1C(=O)N[C@H](C(=O)N[C@@H](CC(=O)O)C(=O)N1CCC[C@H]1C(=O)N[C@@H](CO)C(=O)N[C@@H](CO)C(=O)N1CCC[C@H]1C(=O)N[C@@H](Cc1c[nH]cn1)C(=O)N[C@@H](CO)C(=O)N[C@@H](Cc1ccc(O)cc1)C(N)=O)C(C)C [AM2, adrenomedullin 2]
